Experimental data: PubChem BioAssay (NCI)
Several values for one entry are separate records, joined by “and”; a condition that tells them apart may be missing. Identical values can stand only once.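 These data come from cells grown in 96-well plates and exposed to compound for 48 hours at five concentrations. At the GI50, growth is halved. At the TGI there is no net growth.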

Assays:
Test in all cases: inhibition of tumour cell growth, NCI panel, 48 h
[1] = system: CCRF-CEM leukemia
[2] = system: HOP-92 NSCLC
[3] = system: M14 melanoma
[4] = system: NCI-H522 lung
[5] = system: NCI/ADR-RES ovarian
[6] = system: RPMI-8226 leukemia
[7] = system: SF-295 CNS
[8] = system: SK-OV-3 ovarian
[9] = system: U251 CNS
[10] = system: UACC-257 melanoma

| SMILES | GI50 [1] [µM] | TGI [1] [µM] | GI50 [2] [µM] | TGI [2] | GI50 [3] [µM] | TGI [3] | GI50 [4] [µM] | TGI [4] | GI50 [5] [µM] | TGI [5] | GI50 [6] [µM] | TGI [6] | GI50 [7] [µM] | TGI [7] | GI50 [8] [µM] | TGI [8] | GI50 [9] [µM] | TGI [9] | GI50 [10] [µM] | TGI [10] |
| --- | --- | --- | --- | --- | --- | --- | --- | --- | --- | --- | --- | --- | --- | --- | --- | --- | --- | --- | --- | --- |
| ClCc1ccc(Cn2cnc3c(Cl)ncnc32)cc1 | 4.64 | > 48.8 | 8.48 | 39.9 µM | 9.84 | 19 µM | 11.5 | 75.7 µM | 10.8 | 25.2 µM | 12.2 | 33.5 µM | 5.71 | 19.2 µM | 20 | 47.6 µM | 6.4 | 15.1 µM | 24.2 | 50 µM |
| CN1CCN(c2ccc(NC(=O)c3cncnc3Nc3ccc(OCc4cccc(F)c4)c(Cl)c3)cc2)CC1 | 1.27 | 4.23 | 1.95 | 18.1 µM | 0.895 | 1.71 µM | 1.14 | 3.28 µM | 5.27 | > 50 µM | 1.26 | 3.32 µM | 6.51 | 16.5 µM | 10 | > 50 µM | 1.07 | 2.52 µM | 1.07 | 2.54 µM |
| CN(C)Cc1ccc(C(C)(C)C)cc1-c1cc(C(C)(C)C)ccc1CN(C)C |  | > 100 |  | > 100 µM |  | 41.6 µM |  | > 100 µM |  | > 100 µM |  | > 100 µM |  | > 100 µM |  | > 100 µM |  | > 100 µM |  | 51.7 µM |
| O=C(Nc1cccc(-n2cc(-c3ccncc3)c(-c3ccc(O)c(Cl)c3)n2)c1)c1cc(C(F)(F)F)cc(C(F)(F)F)c1 | 2.21 | > 50 | 0.822 | 4.15 µM | 3.3 | > 50 µM | 1.56 | 12.3 µM | 4.72 | > 50 µM | 3.31 | 33.1 µM | 2.14 | 34.2 µM | 22.8 | > 50 µM | 2.54 | > 50 µM | 16.1 | > 50 µM |
| C[C@@H](NC(=O)c1ncnc(N)c1Cl)c1ncc(C(=O)Nc2cc(C(F)(F)F)c(Cl)cn2)s1 | 25.4 | > 100 | 1.46 | 9.44 µM | 0.497 | 13.6 µM | 13.5 | 34.3 µM | 24.5 | 82.5 µM | 15.2 | 49 µM | 13.6 | 34.7 µM | 31.2 | > 93.5 µM | 19.5 | > 68.5 µM | 0.478 | 4.77 µM |
| CCN(CC)CCC(CNc1ccnc2cc(Cl)ccc12)c1ccccc1 (stereo not given) | 4.02 | 36.5 | 4.51 | 21 µM | 1.71 | 3.19 µM | 2.58 | 11.7 µM | 9.92 | 48.4 µM | 3.11 | 13.5 µM | 1.83 | 4.79 µM | 18.4 | 52.8 µM | 3.93 | 14 µM | 1.86 | 3.36 µM |
| COc1ccc2nc3cc([N+](=O)[O-])ccc3c(NNc3ccccc3)c2c1 | 10.9 | > 100 | 11.5 | 28 µM and 47.4 µM | 24.2 | 75.2 µM and > 100 µM | 2.4 | 18.5 µM and 50.9 µM | 12.8 | 55.1 µM and > 100 µM | 4.8 | 46.7 µM and > 73.3 µM | 6.73 | 25.2 µM and > 100 µM | 14.9 | 35.3 µM and > 100 µM | 8.08 | 22 µM and > 100 µM | 17.3 | 51.5 µM and > 100 µM |
